For orientation: inhibition means the change of the read-out against control, counted positive when it falls. Read a high inhibition as a strong effect.

The experiment concerns INH-resistant ΔkatG H37Rv. The experiment can be described thus: microbe, parasite or virus in culture. The experiment is classed as cell-based, Mycobacterium tuberculosis.

For `CCN(CC)CCC[C@H](C)Nc1ccnc2cc(Cl)ccc12` [S-CQ, (S)-chloroquine], testing at 50 µM (Mycobacterium tuberculosis, H37RV, RAW264.7) gave an inhibition of 60%. In the case of `CCN(CC)CCCC(C)Nc1ccnc2cc(Cl)ccc12` (racemic) [racemic CQ, chloroquine], the “EC80 against ΔkatG H37Rv” value is around 50 µM. Take `CCN(CC)CCC[C@@H](C)Nc1ccnc2cc(Cl)ccc12` [R-CQ, (R)-chloroquine]: the “EC80 against ΔkatG H37Rv” value is 1 µM and the “microbicidal capacity compared with S-CQ or racemic CQ” value is on record as “significantly higher”.

Values taken from patent US20160113919A1 (The Board of Trustees of the Leland Stanford Junior …, priority 2014, published 2016).
